In the assay the target is T1, Pancreatic lipase (Sus scrofa, UniProt P00591).
T1 sequence (P00591 1-450): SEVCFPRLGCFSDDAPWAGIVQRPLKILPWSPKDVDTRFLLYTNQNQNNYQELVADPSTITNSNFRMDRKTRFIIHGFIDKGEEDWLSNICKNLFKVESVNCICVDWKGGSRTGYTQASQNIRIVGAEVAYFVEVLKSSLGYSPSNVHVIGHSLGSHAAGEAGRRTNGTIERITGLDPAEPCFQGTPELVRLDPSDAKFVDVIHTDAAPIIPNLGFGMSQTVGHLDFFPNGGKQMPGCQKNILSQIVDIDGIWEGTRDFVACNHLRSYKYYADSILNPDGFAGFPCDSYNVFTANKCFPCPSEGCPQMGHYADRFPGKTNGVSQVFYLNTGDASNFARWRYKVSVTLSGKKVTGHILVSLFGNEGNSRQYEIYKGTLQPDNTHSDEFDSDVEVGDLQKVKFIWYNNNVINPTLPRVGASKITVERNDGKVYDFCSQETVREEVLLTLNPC
As to the kind of experiment: spectrophotometric p-nitrophenyl palmitate hydrolysis, single concentration […]. It is filed as biochemical.

Usually inhibition stands for the share of the control response that was lost under treatment. A high value points to a strong effect. `COc1cc2cc(Oc3ccc4ccc(=O)oc4c3)c(=O)oc2cc1O` [compound 1, daphnoretin] showed an inhibition at 250 µM of 72%.

For `C[C@@H]1O[C@@H](OC[C@H]2O[C@@H](Oc3c(-c4ccc(O)c(O)c4)oc4cc(O)cc(O)c4c3=O)[C@H](O[C@@H]3O[C@@H](C)[C@H](O)[C@@H](O)[C@H]3O)[C@@H](O)[C@H]2O)[C@H](O)[C@H](O)[C@H]1O` [compound 7, quercetin 3-O-α-L-rhamnopyranosyl-(1 → 2)-[α-L-rhamnopyranosyl-(1 → 6)]-β-D-galactopyranoside], at 250 µM the inhibition was 68%.

`O=C1c2c(O)cc(O)cc2O[C@H](c2ccc(O)cc2)[C@@H]1[C@@H]1C(=O)c2c(O)cc(O)cc2O[C@@H]1c1ccc(O)cc1` [compound 3, neochamaejasmin A]: the inhibition at 250 µM was 61.8%.

In the case of `COC(=O)c1c(O)cc(O)c2c1OC(c1ccc(O)cc1)C(O)C2` (stereo not shown) [compound 2, 5,7,4′-trihydroxy-8-methoxycarbonyl flavanol], testing at 250 µM gave an inhibition of 52%.

Source of the values: article PMC10494966 (RSC Advances, 2023).
